Source: patent publication US20220235011A1, “PHTHALAZINONE COMPOUNDS AND USE THEREOF” (ST PHARM CO., LTD., priority 2019, published 2022)
Structures can show the parent of a compound that is named as a salt.

The compounds below were run against T1, Sirt6 (Homo sapiens, UniProt Q8N6T7) (assay: Measurement of Sirt6 Activity (CycLex Sirt6 Deacetylase Fluorometric Assay Kit)). Settings: compound at 10 μM; fluorescence relative to the group without compound treatment (positive control group).
T1 construct: purchased CycLex CY-1156V2
Type: biochemical
How it was run: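 Recombinant Sirt6 with fluoro-labelled acetyl-lysine peptide, NAD and lysylendopeptidase developer, compound added from 10× stock in PBS; 1 h at room temperature. Fluorescence read at ex 490/em 530 nm; activation expressed as fluorescence ratio relative to enzyme without compound.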

T1 sequence (Q8N6T7 whole entry): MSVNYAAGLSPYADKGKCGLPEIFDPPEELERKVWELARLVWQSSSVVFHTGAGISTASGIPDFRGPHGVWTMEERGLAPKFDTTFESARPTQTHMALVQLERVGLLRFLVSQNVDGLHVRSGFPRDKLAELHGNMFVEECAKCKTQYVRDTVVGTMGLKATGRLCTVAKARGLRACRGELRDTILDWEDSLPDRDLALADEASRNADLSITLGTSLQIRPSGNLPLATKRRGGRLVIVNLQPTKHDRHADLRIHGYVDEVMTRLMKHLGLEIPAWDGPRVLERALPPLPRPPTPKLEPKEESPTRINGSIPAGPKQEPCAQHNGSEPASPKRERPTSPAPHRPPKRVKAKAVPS

| Structure (SMILES) | Sirt6 Activity (% activity, 10 μM) |
| --- | --- |
| O=C1OCCN1c1cccc(-c2nn(-c3ccc(F)cc3)c(=O)c3ccccc23)c1 [Example 161, 3-(3-(3-(4-Fluorophenyl)-4-oxo-3,4-dihydrophthalazin-1-yl)phenyl)oxazolidin-2-one] | 177 % activity |
| Cl.N[C@@H]1CCCCN(c2nn(-c3ccc(F)cc3)c(=O)c3ccccc23)C1 [Example 162, (R)-4-(3-Aminoazepan-1-yl)-2-(4-fluorophenyl)phthalazin-1(2H)-one-hydrochloride] | 205.5 % activity |
| CC(C)(C(N)=O)c1cccc(-c2nn(C3CCCCC3)c(=O)c3ccccc23)c1 [Example 163, 2-(3-(3-Cyclohexyl-4-oxo-3,4-dihydrophthalazin-1-yl)phenyl)-2-methylpropanamide] | 277 % activity |
| CNC(=O)C(C)(C)c1cccc(-c2nn(C3CCCCC3)c(=O)c3ccccc23)c1 [Example 164, 2-(3-(3-Cyclohexyl-4-oxo-3,4-dihydrophthalazin-1-yl)phenyl)-N,2-dimethylpropanamide] | 285.5 % activity |
| Cl.N[C@@H]1CCCCN(c2nn(-c3ccc(F)cc3F)c(=O)c3ccccc23)C1 [Example 165, (R)-4-(3-Aminoazepan-1-yl)-2-(2,4-difluorophenyl)phthalazin-1(2H)-one-hydrochloride] | 277.1 % activity |
| Cl.NC1CCCCN(c2nn(-c3ccc(F)cc3F)c(=O)c3ccccc23)C1 (stereo not shown) [Example 167, 4-(3-Aminoazepan-1-yl)-2-(2,4-difluorophenyl)phthalazin-1(2H)-one-hydrochloride] | 249.4 % activity |
| Cl.NC1CCCCN(c2nn(C3CCC3)c(=O)c3ccccc23)C1 (stereo not shown) [Example 172, 4-(3-Aminoazepan-1-yl)-2-cyclobutyl phthalazin-1(2H)-one-hydrochloride] | 99.5 % activity |
| Cl.NC1CCCCN(c2nn(C3CCCC3)c(=O)c3ccccc23)C1 (stereo not shown) [Example 173, 4-(3-Aminoazepan-1-yl)-2-cyclopentyl phthalazin-1(2H)-one-hydrochloride] | 112.2 % activity |
| Cc1nc(C(C)(C)c2cccc(-c3nn(-c4ccc(F)cc4F)c(=O)c4ccccc34)c2)no1 [Example 174, 2-(2,4-Difluorophenyl)-4-(3-(2-(5-methyl-1,2,4-oxadiazol-3-yl)propan-2-yl)phenyl)phthalazin-1(2H)-one] | 114.2 % activity |
| Cl.N[C@@H]1CCCCN(c2nn(-c3ccccc3F)c(=O)c3ccccc23)C1 [Example 175, (R)-4-(3-Aminoazepan-1-yl)-2-(2-fluorophenyl)phthalazin-1(2H)-one-hydrochloride] | 155.3 % activity |
| CC(C)(C(=O)NC1CC1)c1cccc(-c2nn(-c3ccc(F)cc3F)c(=O)c3ccccc23)c1 [Example 178, N-Cyclopropyl-2-(3-(3-(2,4-difluorophenyl)-4-oxo-3,4-dihydrophthalazin-1-yl)phenyl)-2-methyl Propanamide] | 331.00 % activity |
| O=C(O)C1(c2cccc(-c3nn(-c4ccc(F)cc4F)c(=O)c4ccccc34)c2)CC1 [Example 183, 1-(3-(3-(2,4-Difluorophenyl)-4-oxo-3,4-dihydrophthalazin-1-yl)phenyl)cyclopropan-1-carboxylic Acid] | 194.70 % activity |
| O=c1c2ccccc2c(N2CCCNCC2)nn1-c1ccc(F)cc1F [Example 184, 4-(1,4-Diazepan-1-yl)-2-(2,4-difluorophenyl)phthalazin-1(2H)-one-hydrochloride] | 176.80 % activity |
| Cl.N[C@@H]1CCCCN(c2nn(-c3ccc(Cl)cc3)c(=O)c3ccccc23)C1 [Example 185, (R)-4-(3-Aminoazepan-1-yl)-2-(4-chlorophenyl)phthalazin-1(2H)-one-hydrochloride] | 273.80 % activity |

Continued, values first:

| Sirt6 Activity (% activity, 10 μM) | Structure (SMILES) |
| --- | --- |
| 239.2 % activity | CC(C)(C(=O)O)c1cccc(-c2nn(-c3ccc(F)cc3F)c(=O)c3ccccc23)c1 [Example 166, 2-(3-(3-(2,4-Difluorophenyl)-4-oxo-3,4-dihydrophthalazin-1-yl)phenyl)-2-methylpropanoic Acid] |
| 155.7 % activity | CC(C)(C#N)c1cccc(-c2nn(-c3ccc(F)cc3F)c(=O)c3ccccc23)c1 [Example 168, 2-(3-(3-(2,4-Difluorophenyl)-4-oxo-3,4-dihydrophthalazin-1-yl)phenyl)-2-methylpropanenitrile] |
| 211.3 % activity | CC(C)(c1cccc(-c2nn(-c3ccc(F)cc3F)c(=O)c3ccccc23)c1)c1nnn[nH]1 [Example 169, 4-(3-(2-(1H-Tetrazol-5-yl)propan-2-yl)phenyl)-2-(2,4-difluorophenyl)phthalazin-1(2H)-one] |
| 262.7 % activity | CC(C)(/C(N)=N\O)c1cccc(-c2nn(-c3ccc(F)cc3F)c(=O)c3ccccc23)c1 [Example 170, (E)-2-(3-(3-(2,4-Difluorophenyl)-4-oxo-3,4-dihydrophthalazin-1-yl)phenyl)-N′-hydroxy-2-methyl propanimideamide] |
| 134.7 % activity | CC(C)(C(=O)O)c1cccc(-c2nn(-c3ccccc3F)c(=O)c3ccccc23)c1 [Example 171, 2-(3-(3-(2-Fluorophenyl)-4-oxo-3,4-dihydrophthalazin-1-yl)phenyl)-2-methylpropanoic Acid] |
| 244.30 % activity | CC(C)NC(=O)C(C)(C)c1cccc(-c2nn(-c3ccc(F)cc3F)c(=O)c3ccccc23)c1 [Example 176, 2-(3-(3-(2,4-Difluorophenyl)-4-oxo-3,4-dihydrophthalazin-1-yl)phenyl)-N-isopropyl-2-methylpropanamide] |
| 241.6 % activity | CC(C)(C(=O)N1CCCC1)c1cccc(-c2nn(-c3ccc(F)cc3F)c(=O)c3ccccc23)c1 [Example 177, 2-(2,4-Difluorophenyl)-4-(3-(2-methyl-1-oxo-1-(pyrrolidin-1-yl)propan-2-yl)phenyl)phthalazin-1(2H)-one] |
| 221.60 % activity | CC(C)(C(=O)N1CCOCC1)c1cccc(-c2nn(-c3ccc(F)cc3F)c(=O)c3ccccc23)c1 [Example 179, 2-(2,4-Difluorophenyl)-4-(3-(2-methyl-1-morpholino-1-oxopropan-2-yl)phenyl)phthalazin-1(2H)-one] |
| 133.30 % activity | CC(C)(C(=O)NC1CCCCC1)c1cccc(-c2nn(-c3ccc(F)cc3F)c(=O)c3ccccc23)c1 [Example 180, N-Cyclohexyl-2-(3-(3-(2,4-difluorophenyl)-4-oxo-3,4-dihydrophthalazin-1-yl)phenyl)-2-methylpropanamide] |
| 122.10 % activity | CC(C)(C(=O)Nc1ccccc1)c1cccc(-c2nn(-c3ccc(F)cc3F)c(=O)c3ccccc23)c1 [Example 181, 2-(3-(3-(2,4-difluorophenyl)-4-oxo-3,4-dihydrophthalazin-1-yl)phenyl)-2-methyl-N-phenylpropanamide] |
| 219.60 % activity | Cn1cc(NC(=O)C(C)(C)c2cccc(-c3nn(-c4ccc(F)cc4F)c(=O)c4ccccc34)c2)cn1 [Example 182, 2-(3-(3-(2,4-Difluorophenyl)-4-oxo-3,4-dihydrophthalazin-1-yl)phenyl)-2-methyl-N-(1-methyl-1H-pyrazol-4-yl)propanamide] |
